Laboratory results reported in ChEMBL document CHEMBL1201862, “PubChem BioAssay data set” (2004).
Activity calls are given as the source filed them.

test system: Streptococcus sp. 'group A'; assay: Streptococcus pyogenes SK(-)GAS viability under kanamycin – luminescence, BacTiterGlo, confirmation, counter-screen for streptokinase expression inhibitor project, dose response (AID 1900); assay type: functional, organism-based; settings: not given

| Structure (SMILES) | EC50 |
| --- | --- |
| O=C(NC(=S)Nc1ccccc1N1CCCCC1)c1ccc(F)cc1Cl | 3.75 µM (active) |

target: T1, Heat shock factor protein 1 (Mus musculus, UniProt P38532); assay: decrease of HSF1-responsive luciferase luminescence – cell-based, NIH3T3, dose retest, confirmation (AID 2382); assay type: functional; settings: not given;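 note: NIH3T3 fibroblasts with HSF1-driven luciferase reporter stressed by proteasome inhibitor MG132; luminescence from HSF1-driven luciferase expression after 8 hours of MG132 stress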
T1 sequence (P38532 whole entry): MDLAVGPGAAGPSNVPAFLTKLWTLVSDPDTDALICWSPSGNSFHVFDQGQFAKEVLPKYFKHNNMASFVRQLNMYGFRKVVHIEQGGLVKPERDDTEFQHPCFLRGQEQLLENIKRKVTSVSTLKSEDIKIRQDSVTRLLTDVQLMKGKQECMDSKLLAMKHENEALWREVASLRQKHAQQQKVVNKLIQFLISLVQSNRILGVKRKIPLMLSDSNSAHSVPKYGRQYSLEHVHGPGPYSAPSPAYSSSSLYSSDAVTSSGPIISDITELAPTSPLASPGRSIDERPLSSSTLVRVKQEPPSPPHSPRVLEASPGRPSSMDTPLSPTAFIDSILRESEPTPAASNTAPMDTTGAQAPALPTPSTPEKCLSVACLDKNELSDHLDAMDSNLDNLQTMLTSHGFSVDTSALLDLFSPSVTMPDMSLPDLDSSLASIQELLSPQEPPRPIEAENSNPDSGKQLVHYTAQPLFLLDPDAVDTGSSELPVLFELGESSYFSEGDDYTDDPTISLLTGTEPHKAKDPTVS

| Structure (SMILES) | EC50 |
| --- | --- |
| Nc1nc(Cl)nc(N(c2ccccc2)c2ccccc2)n1 | > 195 µM (not active) |
| Cc1cccc(N2CCN(C(c3ccccc3)c3nnnn3CC3CCCO3)CC2)c1C (centres undefined) | > 195 µM (not active) |
| CCCCN=C(S)NNc1c(Cl)cc(Cl)cc1Cl | > 195 µM (not active) |
| Cc1ccc(NC(=O)N2CCCC2C(=O)NCC2CCCCC2)cc1 (centres undefined) | > 195 µM (not active) |
| Cn1c(N2CCOCC2)nc(-c2ccccc2)c1-c1ccccc1 | > 195 µM (not active) |
| CC(=O)Nc1cccc(NC(=O)CSc2nnc(Cc3cccn3C)n2-c2ccc(F)cc2)c1 | > 195 µM (not active) |
| CN(Cc1ccccc1)C(=O)CCn1c(=O)oc2ccccc21 | > 195 µM (not active) |
| CC(C)(C)NC(=O)c1cccc(NC(=O)Cc2cccs2)c1 | > 195 µM (not active) |
| CC(=O)N(c1ccc2oc(=O)sc2c1)S(=O)(=O)c1ccc(C(=O)O)cc1 | > 195 µM (not active) |
| CCn1c(=O)c(C(=O)Nc2ccccc2F)c(O)c2ccccc21 | > 195 µM (not active) |
| Cn1c(=O)c2ncn(CC(=O)Nc3ccc4c5c(cccc35)CC4)c2n(C)c1=O | > 195 µM (not active) |
| Cn1ccnc1SCC(=O)N(C1CCCCC1)C1CCCCC1 | > 195 µM (not active) |
| O=C(COC(=O)[C@H](Cc1ccccc1)N1C(=O)c2ccccc2C1=O)Nc1ccc2c(c1)OCO2 | > 195 µM (not active) |

target: T2, Streptokinase A (Streptococcus pyogenes serotype M1, UniProt P10520); assay: viability-normalized secreted streptokinase activity reduction – plasminogen activation absorbance, OD405, dose response (AID 1914); assay type: functional, Streptococcus pyogenes M1 GAS; settings: not given;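 note: secreted streptokinase activity via plasminogen activation per viability signal from cell pellet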
T2 sequence (P10520 whole entry): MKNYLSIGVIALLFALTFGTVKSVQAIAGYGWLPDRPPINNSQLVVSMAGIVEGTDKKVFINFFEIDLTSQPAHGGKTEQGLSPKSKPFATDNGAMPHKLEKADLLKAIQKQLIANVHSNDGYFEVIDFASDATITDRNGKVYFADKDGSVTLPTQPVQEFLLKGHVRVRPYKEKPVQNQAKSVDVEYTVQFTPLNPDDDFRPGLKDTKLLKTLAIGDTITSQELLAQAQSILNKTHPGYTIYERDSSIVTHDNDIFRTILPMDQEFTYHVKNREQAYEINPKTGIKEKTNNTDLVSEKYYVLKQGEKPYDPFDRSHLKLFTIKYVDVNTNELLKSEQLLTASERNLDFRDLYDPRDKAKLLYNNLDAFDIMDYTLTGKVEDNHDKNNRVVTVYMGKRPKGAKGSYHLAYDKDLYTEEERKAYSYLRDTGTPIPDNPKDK

| Structure (SMILES) | EC50 |
| --- | --- |
| O=C(NC(=S)Nc1ccccc1N1CCCCC1)c1ccc(F)cc1Cl | 5.06 µM (active) |

test system: Streptococcus; assay: GAS UMAA2166 growth inhibition – luminescence, BacTiterGlo, counter-screen for streptokinase expression inhibitor project, dose response (AID 1915); assay type: functional, organism-based; settings: not given;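 note: potency for reduction of bacterial viability or growth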

| Structure (SMILES) | EC50 |
| --- | --- |
| O=C(NC(=S)Nc1ccccc1N1CCCCC1)c1ccc(F)cc1Cl | > 150 µM (not active) |

test system: not listed separately; assay: Luminescence Cell-Based Dose Retest to Confirm Inhibitors of Cancer Stem Cells. [Related pubchem assays (depositor defined):AID2717, AID2721]; assay type: functional; settings: Homo sapiens

| Structure (SMILES) | AC50 |
| --- | --- |
| O=C(Nc1ccc(Nc2ccccc2)cc1)Nc1ccccc1Cl | 2.12 µM (active) |
| O=C(NC(=S)Nc1ccccc1N1CCCCC1)c1ccc(F)cc1Cl | 1.67 µM (active) |
| CCOC(=O)c1c(-c2ccc(Cl)cc2)csc1NC(=O)CNCc1ccco1 | 2.72 µM (active) |
| CCCc1ccc(-c2cc(NC(=O)CSc3nnc(N)s3)n(-c3ccccc3)n2)cc1 | 3.72 µM (active) |
| O=C(/C=C/c1ccc2c(c1)OCO2)NCCSCc1c(Cl)cccc1Cl | 1.42 µM (active) |
| COc1ccc(C(=O)c2ccc3oc(-c4ccc(OC)cc4)c(-c4ccc(O)cc4)c3c2)cc1 | 3.31 µM (active) |
| CN(C)CCNC(=O)c1sc2nc(-c3ccccc3)cc(C(F)(F)F)c2c1N | 2.65 µM (active) |

target: Cytochrome P450 2C19 (Homo sapiens, UniProt P33261); assay: Cytochrome panel assay with activity outcomes. Panel member name: p450-cyp2c19 Compounds with AC50 equal or less than 10 uM are considered active; assay type: functional; settings: read-out: AC50
Sequence (P33261 whole entry): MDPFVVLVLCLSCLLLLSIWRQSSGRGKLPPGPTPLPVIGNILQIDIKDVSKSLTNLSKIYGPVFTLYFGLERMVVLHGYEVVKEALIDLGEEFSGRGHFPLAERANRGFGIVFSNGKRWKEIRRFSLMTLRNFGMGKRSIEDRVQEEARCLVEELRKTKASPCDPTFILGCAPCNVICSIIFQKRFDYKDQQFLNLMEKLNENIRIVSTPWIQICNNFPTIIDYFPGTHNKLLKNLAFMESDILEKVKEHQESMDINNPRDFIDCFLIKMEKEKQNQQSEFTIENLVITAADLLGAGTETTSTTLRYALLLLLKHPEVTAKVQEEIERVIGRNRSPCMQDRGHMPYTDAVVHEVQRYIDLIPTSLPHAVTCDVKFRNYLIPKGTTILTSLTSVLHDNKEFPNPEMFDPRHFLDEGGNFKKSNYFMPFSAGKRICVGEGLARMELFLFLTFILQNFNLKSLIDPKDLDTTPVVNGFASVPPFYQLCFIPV

| Structure (SMILES) | AC50 |
| --- | --- |
| N#Cc1cccc(NC(=O)N2CC[C@@]3(CCCN(S(=O)(=O)c4ccccc4)C3)C2)c1 | 39.8 µM (inconclusive) |

test system: INS1; assay: INS-1E survival protection against cytokine death – cell-based, luminescence, retest, dose response (AID 449756); assay type: functional; settings: Rattus norvegicus;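 note: cell death triggered by IL-1 beta plus TNF-alpha plus IFN-gamma mixture; protective hits raise ATP signal compared with cytokine alone wells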

| Structure (SMILES) | AC50 |
| --- | --- |
| NC(=S)N/N=C/c1c(O)c(Br)cc2oc3c(c12)CCCC3 | 819 nM (active) |

target: T3, Corticotropin-releasing factor receptor 2/Corticotropin-releasing factor-binding protein (Homo sapiens, UniProt P24387+Q13324); assay: activators of CRF receptor 2 with binding protein – uHTS hits, confirmation (AID 602473); assay type: functional; settings: read-out: EC50_Mean
T3 sequence (Q13324 whole entry): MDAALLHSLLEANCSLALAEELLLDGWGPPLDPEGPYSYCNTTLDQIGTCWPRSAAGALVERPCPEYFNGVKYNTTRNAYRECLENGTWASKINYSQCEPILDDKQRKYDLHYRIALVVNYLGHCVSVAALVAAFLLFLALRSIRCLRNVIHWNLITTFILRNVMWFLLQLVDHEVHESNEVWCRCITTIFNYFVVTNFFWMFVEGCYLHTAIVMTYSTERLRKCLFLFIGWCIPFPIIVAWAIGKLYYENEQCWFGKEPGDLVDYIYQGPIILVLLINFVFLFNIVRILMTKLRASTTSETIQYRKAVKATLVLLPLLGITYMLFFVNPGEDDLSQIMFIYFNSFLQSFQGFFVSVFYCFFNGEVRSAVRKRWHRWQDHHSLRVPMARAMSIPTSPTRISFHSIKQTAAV
T3 sequence (P24387 whole entry): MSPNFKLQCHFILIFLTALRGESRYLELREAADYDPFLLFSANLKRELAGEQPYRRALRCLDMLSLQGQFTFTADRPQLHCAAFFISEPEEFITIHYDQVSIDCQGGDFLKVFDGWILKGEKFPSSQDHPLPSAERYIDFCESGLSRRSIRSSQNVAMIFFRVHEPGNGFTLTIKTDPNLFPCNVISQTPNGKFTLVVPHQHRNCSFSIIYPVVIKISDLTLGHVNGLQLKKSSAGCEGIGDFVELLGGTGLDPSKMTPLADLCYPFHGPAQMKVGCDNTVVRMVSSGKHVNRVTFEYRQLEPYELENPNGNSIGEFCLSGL

| Structure (SMILES) | EC50 |
| --- | --- |
| O=C(NCc1cc(C(F)(F)F)ccc1Cl)c1cccc2c1C(=O)c1ccc(N3CCC(Cc4ccccc4)CC3)cc1S2(=O)=O | 5.99 µM (active) |
| Cc1ccc(S(=O)(=O)N2CCC(=O)N(C(COCc3ccc(Cl)c(Cl)c3)Cc3ccccc3)CC2)cc1 (centres undefined) | 4.29 µM (active) |
| COc1ccc(-n2c(C)cc(/C=C3/SC(=S)N(C)C3=O)c2C)cc1 | > 53 µM (inactive) |

target: T4, Protein skinhead-1 (Caenorhabditis elegans, UniProt P34707); assay type: functional; settings: not given
T4 sequence (P34707 whole entry): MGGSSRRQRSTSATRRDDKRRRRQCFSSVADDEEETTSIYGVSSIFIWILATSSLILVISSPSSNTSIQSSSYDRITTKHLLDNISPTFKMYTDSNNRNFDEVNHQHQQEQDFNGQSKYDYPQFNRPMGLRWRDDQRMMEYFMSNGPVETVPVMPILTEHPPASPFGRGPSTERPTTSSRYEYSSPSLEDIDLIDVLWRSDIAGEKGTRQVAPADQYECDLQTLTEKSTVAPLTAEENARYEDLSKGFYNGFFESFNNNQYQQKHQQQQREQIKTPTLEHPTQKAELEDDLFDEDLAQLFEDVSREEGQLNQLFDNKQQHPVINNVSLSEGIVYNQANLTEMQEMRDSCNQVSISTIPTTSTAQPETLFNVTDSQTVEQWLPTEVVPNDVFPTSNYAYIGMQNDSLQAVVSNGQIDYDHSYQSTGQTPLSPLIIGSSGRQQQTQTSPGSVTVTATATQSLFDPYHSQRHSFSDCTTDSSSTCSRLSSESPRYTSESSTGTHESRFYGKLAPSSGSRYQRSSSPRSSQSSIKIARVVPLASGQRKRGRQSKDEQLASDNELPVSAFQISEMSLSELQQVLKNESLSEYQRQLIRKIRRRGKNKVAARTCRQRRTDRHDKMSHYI

| Structure (SMILES) | IC50 |
| --- | --- |
| Cc1ccc(C)c(NC(=O)c2sc(Cl)nc2-c2ccccc2)c1 | > 100 µM (inactive) |
| COc1ccc(C2CC(c3ccccc3)=NN2S(=O)(=O)c2ccc(C)cc2)c(OC)c1 (centres undefined) | > 100 µM (inactive) |
| Cc1cccc(CC(=O)NCCn2c(C)cc3ccccc32)c1 | > 100 µM (inactive) |
| O=c1c2ccccc2oc2ccc(-c3ccc4cc[nH]c4c3)cc12 | > 100 µM (inactive) |
| COc1ccc(C(C)=O)cc1CN1C(=O)C(C)ON=C1c1cccc(C(F)(F)F)c1 (centres undefined) | > 100 µM (inactive) |
| Cc1cc(OCCCCN2C(=O)NC(C)(C)C2=O)cc(C)c1Cl | > 100 µM (inactive) |
| CCOC(=O)c1cc(-c2ccco2)nc2c1c(C)nn2-c1ccccc1 | > 100 µM (inactive) |
| CCOCC(=O)Nc1cccc(Br)c1 | > 100 µM (inactive) |
| CC(C)c1nc(-c2ccc([N+](=O)[O-])cc2)cs1 | 13.4 µM (active) |
| Cn1c(=O)c2ncn(CC(=O)Nc3ccc4c5c(cccc35)CC4)c2n(C)c1=O | > 100 µM (inactive) |
| OC(c1ccccn1)c1c[nH]c2ccccc12 (centres undefined) | > 100 µM (inactive) |
| O=C(OCC(=O)N1N=C(c2ccc(Cl)cc2)CC1c1ccco1)c1ccccc1O (centres undefined) | > 100 µM (inactive) |
| CC(C)CC(C(=O)NCc1ccccn1)N1C(=O)c2ccccc2C1=O (centres undefined) | > 100 µM (inactive) |

target: Cytochrome P450 2D6 (Homo sapiens, UniProt P10635); settings: not given;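 note: CYP2D6 member of a cytochrome P450 panel assay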
Sequence (P10635 whole entry): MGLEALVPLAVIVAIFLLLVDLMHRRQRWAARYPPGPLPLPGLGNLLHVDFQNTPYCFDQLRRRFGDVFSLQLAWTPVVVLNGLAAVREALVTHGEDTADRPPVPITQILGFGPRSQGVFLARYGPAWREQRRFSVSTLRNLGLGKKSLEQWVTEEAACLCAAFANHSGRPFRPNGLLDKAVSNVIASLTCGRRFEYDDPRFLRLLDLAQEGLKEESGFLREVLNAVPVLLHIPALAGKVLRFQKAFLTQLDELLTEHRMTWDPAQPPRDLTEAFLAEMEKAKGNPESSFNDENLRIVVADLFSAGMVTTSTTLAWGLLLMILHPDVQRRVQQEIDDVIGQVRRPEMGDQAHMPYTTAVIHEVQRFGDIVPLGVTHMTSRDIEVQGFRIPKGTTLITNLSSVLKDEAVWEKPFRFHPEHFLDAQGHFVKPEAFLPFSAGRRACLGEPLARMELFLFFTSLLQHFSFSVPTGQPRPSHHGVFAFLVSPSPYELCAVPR

| Structure (SMILES) | AC50 |
| --- | --- |
| N#Cc1cccc(NC(=O)N2CC[C@@]3(CCCN(S(=O)(=O)c4ccccc4)C3)C2)c1 | 39.8 µM (inconclusive) |

target: T5, Cytochrome P450 1A2 (Homo sapiens, UniProt P05177); settings: not given;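 note: PubChem cytochrome P450 panel assay, CYP1A2 panel member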
T5 sequence (P05177 whole entry): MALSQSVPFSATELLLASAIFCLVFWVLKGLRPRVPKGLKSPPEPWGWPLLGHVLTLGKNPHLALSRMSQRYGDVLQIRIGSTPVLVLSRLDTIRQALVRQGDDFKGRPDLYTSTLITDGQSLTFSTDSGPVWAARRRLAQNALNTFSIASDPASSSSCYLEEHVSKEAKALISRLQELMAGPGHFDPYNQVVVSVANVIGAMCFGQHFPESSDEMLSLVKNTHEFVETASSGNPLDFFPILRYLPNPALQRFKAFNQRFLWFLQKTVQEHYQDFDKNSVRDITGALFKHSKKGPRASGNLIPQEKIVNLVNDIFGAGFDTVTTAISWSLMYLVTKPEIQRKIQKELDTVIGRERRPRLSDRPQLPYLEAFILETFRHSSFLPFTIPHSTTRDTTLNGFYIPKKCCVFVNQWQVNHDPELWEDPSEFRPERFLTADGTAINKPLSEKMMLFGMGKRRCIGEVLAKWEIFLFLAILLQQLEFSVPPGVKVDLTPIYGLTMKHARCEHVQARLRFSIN

| Structure (SMILES) | AC50 |
| --- | --- |
| N#Cc1cccc(NC(=O)N2CC[C@@]3(CCCN(S(=O)(=O)c4ccccc4)C3)C2)c1 | 25.1 µM (inconclusive) |

target: Cytochrome P450 2C9 (Homo sapiens, UniProt P11712); settings: not given
Sequence (P11712 whole entry): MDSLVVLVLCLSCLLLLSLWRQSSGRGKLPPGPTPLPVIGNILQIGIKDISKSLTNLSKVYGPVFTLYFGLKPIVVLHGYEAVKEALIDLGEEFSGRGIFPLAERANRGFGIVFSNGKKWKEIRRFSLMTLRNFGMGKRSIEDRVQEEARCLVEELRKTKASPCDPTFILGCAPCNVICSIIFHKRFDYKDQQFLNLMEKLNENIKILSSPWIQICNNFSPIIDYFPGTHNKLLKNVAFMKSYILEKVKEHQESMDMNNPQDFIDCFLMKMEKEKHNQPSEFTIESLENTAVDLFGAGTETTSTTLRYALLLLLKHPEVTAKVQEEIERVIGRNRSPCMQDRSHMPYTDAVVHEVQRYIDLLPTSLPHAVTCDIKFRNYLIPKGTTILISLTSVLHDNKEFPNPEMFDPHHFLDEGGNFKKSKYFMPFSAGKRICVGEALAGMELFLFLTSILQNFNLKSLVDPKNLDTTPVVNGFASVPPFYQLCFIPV

| Structure (SMILES) | AC50 |
| --- | --- |
| N#Cc1cccc(NC(=O)N2CC[C@@]3(CCCN(S(=O)(=O)c4ccccc4)C3)C2)c1 | 39.8 µM (inconclusive) |
